In US20060177385A1, “Compositions for treating dental caries caused by streptococcus mutans infection” (priority 2002, published 2006):

Legend:
[1] = biological target: T1, Rhodobacter sphaeroides (Rb.s.) ADPG Ppase (Cereibacter sphaeroides, UniProt Q9RNH7); test: ADPG Ppase enzyme assay (14C Glc-1-P to ADPGlucose) with ADPG borano analogs; format: biochemical; set-up: *2.2: unit not given here; conditions: for inhibition of Rb.s. ADPG Ppase: 500 μM
T1 construct: made in house
Source text: Assaying for ADPGlc synthesis activity involves measuring the amount of 14-C labeled Glc-1-P converted to ADPGlucose (Preiss, J., Shen, L., Greenberg, E., and Gentner, N. (1966) Biochemistry 5, 1833-1845). Briefly, unreacted Glc-1-P is separated from product by the following steps: 1) digestion with alkaline phosphatase (thus removing the negatively charged phosphate); 2) spotting an aliquot of the reaction mixture on to positively charged DE-81 filters (Whatman); and 3) washing the filters with water (thus removing the now neutral C-14 glucose).
To assess the effect of a putative inhibitor, enzyme assays are performed at a subsaturating concentration of substrate (depending on the enzyme, ATP=0.2-1 mM, Glc-1-P=0.5 mM) under standard conditions in the absence and presence of the major activator for each enzyme (1-5 mM depending on enzyme). In this way, the effect of the inhibitors can be evaluated under the range of the expected in vivo conditions. Initial screening of a putative inhibitor typically includes testing at two concentrations (˜25 μM and 1 mM)±major activator with appropriate controls and blanks for a total of 9 assays/inhibitor/enzyme (2 control assays—appropriate enzyme concentrations in the absence of inhibitor, 4 experimental assays; 1 blank in the absence of inhibitors; 2 blanks in the presence of inhibitor (no activator required).
The APDGlc Ppase from Rhodobacter sphaeroides has been used as a model enzyme for initial testing of inhibitors as it has been cloned, sequenced, and expressed in the inventor's laboratory (Meyer et al (1999) Arch. Biochem. Biophys. 372, 179-188; Igarashi, R. Y. and Meyer, C. R. (2000) Arch. Biochem Biophys. 376, 47-58) and the purified recombinant enzyme is readily available. Further, this particular enzyme has the most complex regulation (having partial overlap with nearly every type of ADPG Ppase) and has sufficient homology (ranging from ˜40-70% similarity) to the enzyme primary sequence from the mentioned pathogenic bacteria.
1. OVERVIEW: 2 analogs (ANALOG; stereoisomers I, II) of adenosine-α-P-boranodiphosphoglucose were tested for inhibiting activity against the ADPG Ppase enzyme from Rhodobacter sphaeroides (Rb.s.) ADPG Ppase.
PREMIX: A: 100 mM HEPES (pH 7), 0.5 mg/mL BSA, 0.5 mM Glc-1-P, 0.25 mM ATP subsaturating (near S0.5 value), 5 mM MgCl2, (0.2 U Pyrophosphatase))
(170 μL premix will allow 20 μL for analog vol., 10 μL of E)
II. ANALOG CONC.=5, 50, 500 μM (STOCK CONC.=5 mM) in 50 mM HEPES, pH 7, note that 20 μL of 5 mM in 200 μL assay will yield 500 μM final concentration to obtain 5
• ANALOG I: add 625 μL of HEPES buffer, mix thoroughly • ANALOG II: add 500 μL of HEPES buffer, mix thoroughly 1:10 DILUTION ALIQUOTS OF 5 mM STOCKS are prepared in order to generate stock solutions that will give 50 and 5 μM with the addition of 20 μL. 100 μL aliquots are stored at −20 C RBS ADPG PPASE WT ENZYME CONC.=17 mg/mL (use 1:8000 dilution in Dilution Buffer) The Following Assay Set of 11 are Utilized for Each Analog 1—BLANK (Premix A) 2—BLANK+50 μM ANALOG (A) 3—BLANK+500 μM ANALOG (A) 4—E CON (A) 5—E CON+F6P (B) 6—E+5 μM (A) 7—E+5 μM (B) 8—E+50 μM (A) 9—E+50 μM (B) 10—E+500 μM (A) 11—E+500 μM (B)
Purified Rb.s ADPG Ppase was assayed under standard conditions (0.25 mM ATP [˜S0.5 value], 0.5 mM Glc-1-P, 5 mM Mg, 100 mM HEPES, pH7) in the presence and absence of the activator F6P (1 mM) at 3 concentrations of the analogs: 5, 50, and 500 μM. Analog stock solutions were made in 50 mM HEPES, pH 7). These concentrations should be regarded as estimates as there could have been some breakdown of the compounds during 2 years of storage at −20° C. The analogs had no effect on the background cpm of the assays.

bacteria = conditions: cited from earlier work
[2] = single rinse, mouthrinse, 10 subjects; cited from earlier work
[3] = 5 uM analog, premix B (+1 mM F6P)
[4] = 50 uM analog, premix A (no F6P)
[5] = 50 uM analog, premix B (+1 mM F6P)
[6] = 500 uM analog, premix A (no F6P)
[7] = 500 uM analog, premix B (+1 mM F6P)

T1 sequence (Q9RNH7 whole entry): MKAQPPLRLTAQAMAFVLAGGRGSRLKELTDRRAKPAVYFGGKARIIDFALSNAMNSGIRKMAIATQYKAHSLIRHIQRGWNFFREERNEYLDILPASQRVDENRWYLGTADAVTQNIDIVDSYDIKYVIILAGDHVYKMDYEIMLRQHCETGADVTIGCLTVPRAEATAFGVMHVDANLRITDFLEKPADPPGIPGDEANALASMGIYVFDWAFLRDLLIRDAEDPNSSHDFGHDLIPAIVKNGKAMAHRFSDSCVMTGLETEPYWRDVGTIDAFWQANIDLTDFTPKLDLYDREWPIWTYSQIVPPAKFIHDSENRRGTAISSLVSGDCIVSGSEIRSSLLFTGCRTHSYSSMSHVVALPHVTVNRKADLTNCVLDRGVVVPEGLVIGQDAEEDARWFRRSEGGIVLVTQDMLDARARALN

BP(=O)(OC[C@H]1O[C@@H](n2cnc3c(N)ncnc32)[C@H](O)[C@@H]1O)OP(=O)(O)O[C@H]1O[C@H](CO)[C@@H](O)[C@H](O)[C@H]1O (single isomer, unassigned) [Analog I, adenosine-α-P-boranodiphosphoglucose]
*2.2 ([1]; 5 uM analog, premix A (no F6P)): 0.854
CPM ([1]; 5 uM analog, premix A (no F6P)): 380.67 CPM
Units/mg ([1]; 5 uM analog, premix A (no F6P)): 4.02 Units/mg
cor. CPM ([1]; 5 uM analog, premix A (no F6P)): 320.34 CPM
dil. Corr ([1]; 5 uM analog, premix A (no F6P)): 68.339 nmol/min/µL
nmol ([1]; 5 uM analog, premix A (no F6P)): 0.39 nmol
nmol/min ([1]; 5 uM analog, premix A (no F6P)): 0.085 nmol/min
nmol/min/uL ([1]; 5 uM analog, premix A (no F6P)): 0.0085 nmol/min/µL
*2.2 [1, 3]: 19.496
CPM [1, 3]: 7371.33 CPM
Units/mg [1, 3]: 91.75 Units/mg
cor. CPM [1, 3]: 7311.00 CPM
dil. Corr [1, 3]: 1559.680 nmol/min/µL
nmol [1, 3]: 8.86 nmol
nmol/min [1, 3]: 1.950 nmol/min
nmol/min/uL [1, 3]: 0.1950 nmol/min/µL
*2.2 [1, 4]: 0.755
CPM [1, 4]: 359.33 CPM
Units/mg [1, 4]: 3.55 Units/mg
cor. CPM [1, 4]: 283.00 CPM
dil. Corr [1, 4]: 60.373 nmol/min/µL
nmol [1, 4]: 0.34 nmol
nmol/min [1, 4]: 0.075 nmol/min
nmol/min/uL [1, 4]: 0.0075 nmol/min/µL
*2.2 [1, 5]: 18.572
CPM [1, 5]: 7041.00 CPM
Units/mg [1, 5]: 87.40 Units/mg
cor. CPM [1, 5]: 6964.67 CPM
dil. Corr [1, 5]: 1485.796 nmol/min/µL
nmol [1, 5]: 8.44 nmol
nmol/min [1, 5]: 1.857 nmol/min
nmol/min/uL [1, 5]: 0.1857 nmol/min/µL
*2.2 [1, 6]: 0.284
CPM [1, 6]: 160.00 CPM
Units/mg [1, 6]: 1.33 Units/mg
cor. CPM [1, 6]: 106.33 CPM
dil. Corr [1, 6]: 22.684 nmol/min/µL
nmol [1, 6]: 0.13 nmol
nmol/min [1, 6]: 0.028 nmol/min
nmol/min/uL [1, 6]: 0.0028 nmol/min/µL
*2.2 [1, 7]: 11.341
CPM [1, 7]: 4306.67 CPM
Units/mg [1, 7]: 53.37 Units/mg
cor. CPM [1, 7]: 4253.00 CPM
dil. Corr [1, 7]: 907.307 nmol/min/µL
nmol [1, 7]: 5.16 nmol
nmol/min [1, 7]: 1.134 nmol/min
nmol/min/uL [1, 7]: 0.1134 nmol/min/µL
inhibition of Rb.s. ADPG Ppase ([1]; absence of the activator F6P): about 75%
inhibition of Rb.s. ADPG Ppase ([1]; presence of F6P): ~50%

BP(=O)(OC[C@H]1O[C@@H](n2cnc3c(N)ncnc32)[C@H](O)[C@@H]1O)OP(=O)(O)O[C@H]1O[C@H](CO)[C@@H](O)[C@H](O)[C@H]1O (single isomer, unassigned) [Analog II, adenosine-α-P-boranodiphosphoglucose]
*2.2 ([1]; 5 uM analog, premix A (no F6P)): 1.122
CPM ([1]; 5 uM analog, premix A (no F6P)): 477.00 CPM
Units/mg ([1]; 5 uM analog, premix A (no F6P)): 5.28 Units/mg
cor. CPM ([1]; 5 uM analog, premix A (no F6P)): 420.67 CPM
dil. Corr ([1]; 5 uM analog, premix A (no F6P)): 89.743 nmol/min/µL
nmol ([1]; 5 uM analog, premix A (no F6P)): 0.51 nmol
nmol/min ([1]; 5 uM analog, premix A (no F6P)): 0.112 nmol/min
nmol/min/uL ([1]; 5 uM analog, premix A (no F6P)): 0.0112 nmol/min/µL
*2.2 [1, 3]: 19.946
CPM [1, 3]: 7536.00 CPM
Units/mg [1, 3]: 93.86 Units/mg
cor. CPM [1, 3]: 7479.67 CPM
dil. Corr [1, 3]: 1595.663 nmol/min/µL
nmol [1, 3]: 9.07 nmol
nmol/min [1, 3]: 1.995 nmol/min
nmol/min/uL [1, 3]: 0.1995 nmol/min/µL
*2.2 [1, 4]: 0.930
CPM [1, 4]: 399.67 CPM
Units/mg [1, 4]: 4.38 Units/mg
cor. CPM [1, 4]: 348.67 CPM
dil. Corr [1, 4]: 74.383 nmol/min/µL
nmol [1, 4]: 0.42 nmol
nmol/min [1, 4]: 0.093 nmol/min
nmol/min/uL [1, 4]: 0.0093 nmol/min/µL
*2.2 [1, 5]: 16.305
CPM [1, 5]: 6165.33 CPM
Units/mg [1, 5]: 76.73 Units/mg
cor. CPM [1, 5]: 6114.33 CPM
dil. Corr [1, 5]: 1304.390 nmol/min/µL
nmol [1, 5]: 7.41 nmol
nmol/min [1, 5]: 1.630 nmol/min
nmol/min/uL [1, 5]: 0.1630 nmol/min/µL
*2.2 [1, 6]: 0.376
CPM [1, 6]: 194.33 CPM
Units/mg [1, 6]: 1.77 Units/mg
cor. CPM [1, 6]: 141.00 CPM
dil. Corr [1, 6]: 30.080 nmol/min/µL
nmol [1, 6]: 0.17 nmol
nmol/min [1, 6]: 0.038 nmol/min
nmol/min/uL [1, 6]: 0.0038 nmol/min/µL
*2.2 [1, 7]: 7.122
CPM [1, 7]: 2724.00 CPM
Units/mg [1, 7]: 33.51 Units/mg
cor. CPM [1, 7]: 2670.67 CPM
dil. Corr [1, 7]: 569.743 nmol/min/µL
nmol [1, 7]: 3.24 nmol
nmol/min [1, 7]: 0.712 nmol/min
nmol/min/uL [1, 7]: 0.0712 nmol/min/µL
inhibition of Rb.s. ADPG Ppase ([1]; absence of the activator F6P): about 70%
inhibition of Rb.s. ADPG Ppase ([1]; presence of F6P): about 70%

[F-].[Na+] [NaF]
increase in concentration necessary to be bacteriocidal (bacteria; relative to inhibitory concentration): 30 fold
concentration required for inhibitory effects (bacteria; vehicles): > 100 μl/ml

CCCCC(CC)CNC(=N)NC(=N)NCCCCCCNC(=N)NC(=N)NCC(CC)CCCC (stereo not drawn) [alexidine]
return to pre-rinse levels after [2]: 5 h

N=C(NCCCCCCNC(=N)NC(=N)Nc1ccc(Cl)cc1)NC(=N)Nc1ccc(Cl)cc1.O=C(O)[C@H](O)[C@@H](O)[C@H](O)[C@H](O)CO.O=C(O)[C@H](O)[C@@H](O)[C@H](O)[C@H](O)CO [chlorhexidine gluconate]
return to pre-rinse levels after [2]: 7 h

CCCCC(CC)CN1CN(CC(CC)CCCC)CC(C)(N)C1 (stereo not drawn) [hexetidine]
return to pre-rinse levels after [2]: 1.5 h
